pIC50: −log10 of the molar value.
Molecular target: Kynurenine 3-monooxygenase (Homo sapiens, UniProt O15229)
Assay: Inhibition of kynurenine monooxygenase (unknown origin) by MS rapidfire assay

Kynurenine 3-monooxygenase, sequence (O15229 whole entry): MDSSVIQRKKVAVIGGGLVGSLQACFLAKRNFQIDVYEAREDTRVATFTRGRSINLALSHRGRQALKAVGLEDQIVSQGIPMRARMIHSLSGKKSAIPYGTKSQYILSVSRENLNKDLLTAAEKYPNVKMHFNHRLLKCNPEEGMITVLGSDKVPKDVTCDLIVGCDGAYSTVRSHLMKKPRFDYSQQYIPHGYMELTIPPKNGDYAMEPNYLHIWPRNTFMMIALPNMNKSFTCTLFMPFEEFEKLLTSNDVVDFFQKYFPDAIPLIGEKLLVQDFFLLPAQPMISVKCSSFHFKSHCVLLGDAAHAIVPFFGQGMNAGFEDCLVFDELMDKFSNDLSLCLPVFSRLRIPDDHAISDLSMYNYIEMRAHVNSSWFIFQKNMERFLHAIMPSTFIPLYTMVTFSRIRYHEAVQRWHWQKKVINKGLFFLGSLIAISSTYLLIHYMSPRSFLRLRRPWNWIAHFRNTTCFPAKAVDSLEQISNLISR

| pIC50 | Compound |
| --- | --- |
| > 6.10 | Cn1ccnc1COc1cc2oc(=O)n(CCC(=O)O)c2cc1Cl |
| > 6.10 | C[C@@H](Oc1cc2oc(=O)n(CCC(=O)O)c2cc1Cl)c1cccnn1 |

Reference: ChEMBL document CHEMBL3632551, “Kynurenine Monooxygenase (KMO) Inhibitors for the Treatment of Acute Pancreatitis and Neurodegenerative Disorders” (ACS Med Chem Lett, 2015)
